The record followed here is PMC6443933, “Antagonizing Retinoic Acid-Related-Orphan Receptor Gamma Activity Blocks the T Helper 17/Interleukin-17 Pathway Leading to Attenuated Pro-inflammatory Human Keratinocyte and Skin Responses” (Frontiers in Immunology, 2019).

In one assay the target is T1, RORγt-LBD (Homo sapiens, UniProt P51449).
T1 construct: luciferase reporter gene transcription is driven by the GAL4-RORγt-LBD fusion construct; expressed in transfected cells; host or cells: Jurkat cells stably carrying pGL4.35 (9 x GAL4 sites, luciferase)
T1 sequence (P51449 269-508 limits assumed): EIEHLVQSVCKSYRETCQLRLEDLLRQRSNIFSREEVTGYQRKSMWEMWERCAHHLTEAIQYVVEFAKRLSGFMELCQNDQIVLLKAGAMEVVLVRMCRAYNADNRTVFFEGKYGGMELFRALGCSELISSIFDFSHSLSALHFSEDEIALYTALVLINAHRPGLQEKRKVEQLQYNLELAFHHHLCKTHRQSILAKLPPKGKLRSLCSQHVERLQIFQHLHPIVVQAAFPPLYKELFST
The assay is described as follows: RORγt-LBD/GAL4 transactivation reporter gene assay in Jurkat T-cells. The format is cell-based. The procedure:
(§1) Selectivity against other ROR family members was assessed in a GAL4 reporter gene assay as previously described ([44]). Briefly, Jurkat cells stably expressing the pGL4.35 plasmid (Promega) containing nine GAL4 binding sites inducing the transcription of the luciferase reporter gene were transiently transfected with the human RORα, RORβ or RORγt-LBD/GAL4-DBD constructs. After 24 h post-transfection, cells were incubated with Cpd A for an additional 24 h before luciferase activity was determined using an EnVision Multilabel Plate Reader (Perkin Elmer).

In the next assay the test system is T2, RORα.
T2 construct: RORα and RORβ we performed LBD-GAL4 reporter gene assays; expressed in transfected cells; host or cells: Jurkat cells stably carrying pGL4.35
The assay is described as follows: RORα LBD-GAL4 reporter gene assay in Jurkat cells. The class given is cell-based, human. The procedure: as §1

The test system of assay [1] is T3, RORγt binding to RORE DNA binding sites.
T3 construct: HUT78 T-cells stably expressing full-length eGFP-RORγt; eGFP; expressed in transfected cells
The assay is described as follows: RORE oligonucleotide pull-down assay. The format is cell-based, human. As to conditions: 10 μM, HUT78-RORγt nuclear extracts, anti-CD3/PMA 2 h, vs DMSO. The procedure: In order to detect RORγt binding to its cognate DNA binding sites, biotinylated oligonucleotide probes containing putative 4 × RORE or mutated-RORE DNA sequences were synthesized (Microsynth, Switzerland) and annealed in order to form a double stranded DNA probe. The probes contained the following sequences (where the bold nucleotides represent a putative RORγt binding site or the mutated form of the RORE):
Nuclear extracts originating from HUT78 cells stably expressing eGFP-RORγt were prepared as previously described ([45]). Briefly, cells were incubated with Cpd A (10 μM final concentration) for 0.5 h followed by a 2 h-stimulation period using CD3 antibody (2.5 μg/ml, clone OKT-3, BioXcell) plus PMA (8 ng/ml, Sigma). Nuclear lysates were generated using a nuclear extraction kit (Pierce, Thermo scientific), followed by a pre-clearing step with streptavidin-sepharose beads (GE healthcare Amersham) for 1 h at 4°C. The supernatants were incubated with biotinylated double-stranded RORE or with mutated RORE probes (10 nM final concentration) for 1 h at 4°C, followed by addition of a 50% slurry of streptavidin-sepharose beads for 1 h. The bound complexes were washed five times with 1 ml buffer consisting of 50 mM Tris-HCl, 1 mM EDTA, 1% NP-40, 150 mM NaCl and protease inhibitors (Roche). […]

The subject of assay [2] is STAT3 phosphorylation in Ba/F3 cells stably expressing the human IL-21 receptor. The assay is described as follows: IL-21-induced phospho-STAT3 by flow cytometry. The class given is cell-based. Conditions: 10 μM, 1 h pre-incubation, vs DMSO. As to the method:
To assess whether Cpd A affected STAT3 activity we induced STAT3 phosphorylation in Ba/F3 cells stably expressing the human IL-21 receptor (kindly provided by Dr. Max Warncke, Novartis). Cells were pre-incubated for 1 h with 10 μM of Cpd A or with 1 μM of the pan-JAK inhibitor CP690550. To induce STAT3 activity, the cells were stimulated for 1.5 h with recombinant human IL-21 (3 nM), followed by two washing steps using buffer containing PBS/0.5% BSA. The cells were fixed with 2% paraformaldehyde for 15 min at room temperature, washed and resuspended in ice-cold 90% methanol solution and stored overnight at −20°C. The samples were washed and stained for 1 h with an Alexa 647-labeled anti-phospho (pY705)-STAT3 antibody (BD biosciences). After two washes the cells were analyzed using a LSR Fortessa (BD Bioscience) and analyzed using FlowJo software (Tree Star).

With `Cc1ccc(C(=O)Nc2cn3ccnc3c(CN3CCN(c4noc(C(C)(C)C)n4)[C@@H](C)C3)c2C)cn1` [Cpd A, (S)-N-(8-((4-(5-(tert-butyl)-1,2,4-oxadiazol-3-yl)-3-methylpiperazin-1-yl)methyl)-7-methylimidazo[1,2-a]pyridin-6-yl)-6-methylnicotinamide], the “inhibition of GAL4 promoter activity” value against RORγt-LBD was “complete inhibition”. For the same molecule, on RORγt-LBD (luciferase, 24 h with compound), the concentration for half-maximal inhibition (IC50) was 95 nM. For the same molecule, in the assay on RORα, the “activity toward RORα (LBD-GAL4 reporter)” value is on record as “lacked activity”. Besides, the “RORγt association with the ROR elements” value in assay [1] is reported as “still intact”. Besides, the “IL-21-induced STAT3 phosphorylation (pY705)” value in assay [2] was “did not affect”.
